# According to PubChem BioAssay AID330 (DTP/NCI, 2004):
# Values joined by “and” are separate entries in the source; they are usually repeats but may differ in a detail not shown here. Identical values can stand only once. Inconclusive results and toxic doses are left out.
# Test system: P388 leukemia ip, CD2F1 mice, survival T/C
# Experiment: NCI In Vivo Anticancer Drug Screen. Data for tumor model P388 Leukemia (intraperitoneal) in CD2F1 (CDF1) mice
# Settings: endpoint: median survival time, higher = longer survival
# Procedure, shortened: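 Mice carrying the transplanted tumor received test compound or vehicle. Survival was recorded in each group, and the value is the treated-group measurement divided by that of the vehicle-treated control group.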
# [1] = dose: 100.0 mg/kg/injection, schedule: Q01DX001 (ip), vehicle: saline with Tween-80
# [2] = dose: 200.0 mg/kg/injection, schedule: Q01DX001 (ip), vehicle: saline with Tween-80
# [3] = dose: 400.0 mg/kg/injection, schedule: Q01DX001 (ip), vehicle: saline with Tween-80
# [4] = dose: 50.0 mg/kg/injection, schedule: Q01DX001 (ip), vehicle: Klucel (hydroxypropylcellulose) (HPC)
# [5] = dose: 100.0 mg/kg/injection, schedule: Q01DX001 (ip), vehicle: Klucel (hydroxypropylcellulose) (HPC)
# [6] = dose: 200.0 mg/kg/injection, schedule: Q01DX001 (ip), vehicle: Klucel (hydroxypropylcellulose) (HPC)
# [7] = dose: 25.0 mg/kg/injection, schedule: Q01DX009 (ip), vehicle: Klucel (hydroxypropylcellulose) (HPC)
# [8] = dose: 50.0 mg/kg/injection, schedule: Q01DX009 (ip), vehicle: Klucel (hydroxypropylcellulose) (HPC)
# [9] = dose: 100.0 mg/kg/injection, schedule: Q01DX009 (ip), vehicle: Klucel (hydroxypropylcellulose) (HPC)
# [10] = dose: 200.0 mg/kg/injection, schedule: Q01DX009 (ip), vehicle: Klucel (hydroxypropylcellulose) (HPC)
# [11] = dose: 100.0 mg/kg/injection, schedule: Q04DX003 (ip), vehicle: saline with Tween-80
# [12] = dose: 50.0 mg/kg/injection, schedule: Q01DX009 (ip), vehicle: saline with Tween-80
# [13] = dose: 100.0 mg/kg/injection, schedule: Q01DX009 (ip), vehicle: saline with Tween-80
# [14] = dose: 200.0 mg/kg/injection, schedule: Q01DX009 (ip), vehicle: saline with Tween-80
smiles,measurement,setting,value
CCOc1c2c(nn(C)c1=O)Oc1ccccc1N2CCCN1CCOCC1,T/C,"dose: 15.0 mg/kg/injection, schedule: Q01DX005 (ip), vehicle: saline with Tween-80",96 % of control
same,T/C,"dose: 30.0 mg/kg/injection, schedule: Q01DX005 (ip), vehicle: saline with Tween-80",90 % of control
same,T/C,"dose: 60.0 mg/kg/injection, schedule: Q01DX005 (ip), vehicle: saline with Tween-80",104 % of control and 91 % of control
O=c1c2cc(Cl)cc(Cl)c2nc2n1S(=O)(=O)c1ccccc1N2c1ccccc1,T/C,[1],94 % of control
same,T/C,[2],91 % of control
same,T/C,[3],95 % of control
C=CC1(OC)CC1CO (centres undefined),T/C,"dose: 25.0 mg/kg/injection, schedule: Q01DX001 (ip), vehicle: Klucel (hydroxypropylcellulose) (HPC)",99 % of control
same,T/C,[4],102 % of control
same,T/C,[5],91 % of control and 93 % of control
same,T/C,[6],95 % of control
O=[N+]([O-])c1ccc(N2c3ccccc3SC2c2ccco2)c([N+](=O)[O-])c1 (centres undefined),T/C,"dose: 1.5 mg/kg/injection, schedule: Q01DX005 (ip), vehicle: saline with Tween-80",102 % of control
same,T/C,"dose: 3.0 mg/kg/injection, schedule: Q01DX005 (ip), vehicle: saline with Tween-80",102 % of control
same,T/C,"dose: 6.0 mg/kg/injection, schedule: Q01DX005 (ip), vehicle: saline with Tween-80",91 % of control
COC(=O)[C@@]12OC[C@]34[C@H]([C@@H](O)[C@@H]1O)[C@@]1(C)CC(=O)C(O)=C(C)[C@@H]1C[C@H]3OC(=O)[C@H](OC(=O)CC(C)C)[C@@H]24,T/C,"dose: 0.12 mg/kg/injection, schedule: Q01DX009 (ip), vehicle: saline + alcohol",110 % of control
same,T/C,"dose: 0.25 mg/kg/injection, schedule: Q01DX009 (ip), vehicle: saline + alcohol",118 % of control
O=c1[nH]cc(B(O)O)c(=O)[nH]1,T/C,"dose: 100.0 mg/kg/injection, schedule: Q01DX009 (ip), vehicle: saline",106 % of control
same,T/C,"dose: 200.0 mg/kg/injection, schedule: Q01DX009 (ip), vehicle: saline",113 % of control
same,T/C,"dose: 400.0 mg/kg/injection, schedule: Q01DX009 (ip), vehicle: saline",113 % of control
CN(C)CCCNc1ccc(NCCCN(C)C)c2c1C(=O)c1ccccc1C2=O,T/C,"dose: 3.75 mg/kg/injection, schedule: Q01DX009 (ip), vehicle: saline",100 % of control
same,T/C,"dose: 7.5 mg/kg/injection, schedule: Q01DX009 (ip), vehicle: saline",102 % of control
same,T/C,"dose: 12.5 mg/kg/injection, schedule: Q01DX009 (ip), vehicle: water",104 % of control
same,T/C,"dose: 15.0 mg/kg/injection, schedule: Q01DX009 (ip), vehicle: saline",102 % of control
same,T/C,"dose: 25.0 mg/kg/injection, schedule: Q01DX009 (ip), vehicle: water",103 % of control
same,T/C,"dose: 30.0 mg/kg/injection, schedule: Q01DX009 (ip), vehicle: saline",100 % of control
same,T/C,"dose: 60.0 mg/kg/injection, schedule: Q01DX009 (ip), vehicle: saline",100 % of control
CCOC(C)(OCC)N(C)C (tested in a mixture with another compound),T/C,"dose: 35.5 mg/kg/injection, schedule: Q01DX005 (ip), vehicle: saline with Tween-80",101 % of control
same,T/C,"dose: 71.0 mg/kg/injection, schedule: Q01DX005 (ip), vehicle: saline with Tween-80",102 % of control
same,T/C,"dose: 142.0 mg/kg/injection, schedule: Q01DX005 (ip), vehicle: saline with Tween-80",118 % of control
CNC(=O)c1cccc2c(Nc3ccc(NS(C)(=O)=O)cc3OC)c3cccc(C)c3nc12,T/C,"dose: 1.56 mg/kg/injection, schedule: Q01DX005 (ip), vehicle: water",163 % of control
same,T/C,"dose: 3.0 mg/kg/injection, schedule: Q01DX005 (ip), vehicle: water",175 % of control
same,T/C,"dose: 3.12 mg/kg/injection, schedule: Q01DX005 (ip), vehicle: water",169 % of control
same,T/C,"dose: 6.25 mg/kg/injection, schedule: Q01DX005 (ip), vehicle: water",218 % of control
same,T/C,"dose: 12.5 mg/kg/injection, schedule: Q01DX005 (oral), vehicle: water",151 % of control
COc1ccc(OC)c(CC(C(C)=O)C(C)=O)c1,T/C,"dose: 25.0 mg/kg/injection, schedule: Q01DX009 (ip), vehicle: other",100 % of control
same,T/C,"dose: 50.0 mg/kg/injection, schedule: Q01DX009 (ip), vehicle: other",105 % of control
same,T/C,"dose: 100.0 mg/kg/injection, schedule: Q01DX009 (ip), vehicle: other",106 % of control
same,T/C,"dose: 200.0 mg/kg/injection, schedule: Q01DX009 (ip), vehicle: other",108 % of control
same,T/C,"dose: 400.0 mg/kg/injection, schedule: Q01DX009 (ip), vehicle: other",116 % of control
CCC(C)C(=O)OC1CC2(C)C(c3ccoc3)OC(=O)CC23OC2(C)OC34C(OC(=O)C(C)C)C3(O)C(OC(=O)C5(C)OC5C)C5(C)CC3(O)C(C)(C5CC(=O)OC)C14O2 (centres undefined),T/C,[7],93 % of control
same,T/C,[8],104 % of control
same,T/C,[9],102 % of control
same,T/C,[10],99 % of control
O=C(Oc1ccccc1)c1ccc(C(=O)Oc2ccccc2)cc1,T/C,[8],108 % of control
same,T/C,[9],102 % of control
same,T/C,[10],101 % of control
CCCCCCCCCCCCNC(=S)C(=S)NCCCCCCCCCCCC,T/C,[7],98 % of control
same,T/C,[8],95 % of control
same,T/C,[9],94 % of control
CC(C)=CCCC(C)=C(C#N)C#N,T/C,[11],100 % of control
O=C1NC(=O)N(c2ccc([N+](=O)[O-])cc2)C1=O,T/C,[8],86 % of control
same,T/C,[9],89 % of control
same,T/C,[10],86 % of control (2×) and 93 % of control
CC(=O)OC1CC2CCC1(/C=C/C(=O)c1ccccc1)C2 (centres undefined),T/C,[12],100 % of control
same,T/C,[13],100 % of control
same,T/C,[14],113 % of control
O=c1c2c([nH]c3c1c1[nH]c4c(c(=O)c1c1[nH]c5c(c(=O)c31)CCCC5)CCCC4)CCCC2,T/C,"dose: 25.0 mg/kg/injection, schedule: Q04DX003 (ip), vehicle: saline with Tween-80",104 % of control
same,T/C,"dose: 50.0 mg/kg/injection, schedule: Q04DX003 (ip), vehicle: saline with Tween-80",95 % of control
same,T/C,[11],87 % of control and 95 % of control
O=C(OC(Cc1ccccc1)C(=O)O)c1ccc([N+](=O)[O-])cc1 (centres undefined),T/C,[4],97 % of control
same,T/C,[5],111 % of control
same,T/C,[6],109 % of control
CCOC(=O)c1ccc(NC(=O)Nc2cccc(O)c2)cc1,T/C,"dose: 60.0 mg/kg/injection, schedule: Q01DX005 (ip), vehicle: Klucel (hydroxypropylcellulose) (HPC)",107 % of control
same,T/C,"dose: 120.0 mg/kg/injection, schedule: Q01DX005 (ip), vehicle: Klucel (hydroxypropylcellulose) (HPC)",104 % of control
same,T/C,"dose: 240.0 mg/kg/injection, schedule: Q01DX005 (ip), vehicle: Klucel (hydroxypropylcellulose) (HPC)",91 % of control
COc1ccc(N2C(=O)CCC2=O)cc1,T/C,[1],109 % of control
same,T/C,[2],100 % of control
same,T/C,[3],95 % of control
CC(S)c1ccccc1 (centres undefined),T/C,[12],115 % of control
same,T/C,[13],113 % of control
same,T/C,[14],115 % of control
CN(C)CC1CC1C1(C)c2ccccc2Sc2ccccc21 (centres undefined),T/C,[8],98 % of control
same,T/C,[9],95 % of control
CCCCCCCNc1ncnc2[nH]ncc12,T/C,"dose: 50.0 mg/kg/injection, schedule: Q01DX005 (ip), vehicle: saline with Tween-80",112 % of control
same,T/C,"dose: 100.0 mg/kg/injection, schedule: Q01DX005 (ip), vehicle: saline with Tween-80",107 % of control
same,T/C,"dose: 200.0 mg/kg/injection, schedule: Q01DX005 (ip), vehicle: saline with Tween-80",107 % of control
CCN(CC)CCCC(C)NC(=O)Cc1cc(O)c2c(c1O)C(=O)c1ccccc1C2=O (centres undefined),T/C,"dose: 2.5 mg/kg/injection, schedule: Q01DX009 (ip), vehicle: water",108 % of control and 112 % of control
same,T/C,"dose: 5.0 mg/kg/injection, schedule: Q01DX009 (ip), vehicle: water",102 % of control and 110 % of control
same,T/C,"dose: 10.0 mg/kg/injection, schedule: Q01DX009 (ip), vehicle: water",99 % of control and 103 % of control and 97 % of control
same,T/C,"dose: 20.0 mg/kg/injection, schedule: Q01DX009 (ip), vehicle: water",99 % of control and 110 % of control and 93 % of control
same,T/C,"dose: 40.0 mg/kg/injection, schedule: Q01DX009 (ip), vehicle: water",102 % of control and 113 % of control
same,T/C,"dose: 80.0 mg/kg/injection, schedule: Q01DX009 (ip), vehicle: water",108 % of control
CC(NNC(=S)N1CCCCCC1)c1cccc[n+]1[O-] (centres undefined),T/C,"dose: 50.0 mg/kg/injection, schedule: Q01DX005 (ip), vehicle: Klucel (hydroxypropylcellulose) (HPC)",101 % of control
same,T/C,"dose: 100.0 mg/kg/injection, schedule: Q01DX005 (ip), vehicle: Klucel (hydroxypropylcellulose) (HPC)",101 % of control
same,T/C,"dose: 200.0 mg/kg/injection, schedule: Q01DX005 (ip), vehicle: Klucel (hydroxypropylcellulose) (HPC)",93 % of control
